Test results reported in patent publication US6423729B1, “Therapeutic or prophylactic agent for glomerulopathy” (Shionogi & Co., Ltd., priority 1997, dated 2002).
pIC50: −log10 of the molar value.

tested on: not given; experiment: not given; details: not given

| Structure (SMILES) | melting point |
| --- | --- |
| CCOc1ccc(-c2nnn(-c3ccc(S(=O)(=O)N[C@@H](C(=O)O)C(C)C)cc3)n2)cc1 [Compound 118] | 187 to 189 °C |
| CCc1ccc(-c2nnn(-c3ccc(S(=O)(=O)N[C@H](Cc4ccccc4)C(=O)O)cc3)n2)cc1 [Compound 108] | 187 to 189 °C |
| CC(C)[C@@H](NS(=O)(=O)c1ccc(-n2nnc(-c3ccc(N(C)C)cc3)n2)cc1)C(=O)O [Compound 119] | 185 to 188 °C |
| CCc1ccc(-c2nnn(-c3ccc(S(=O)(=O)N[C@H](C)C(=O)O)cc3)n2)cc1 [Compound 117] | 155 to 157 °C |
| CC(C)[C@@H](NS(=O)(=O)c1ccc(-n2nnc(-c3ccc(C(F)(F)F)cc3)n2)cc1)C(=O)O [Compound 104] | 198 to 200 °C |
| Cc1ccc(-n2nnc(-c3ccc(S(=O)(=O)N[C@@H](C(=O)O)C(C)C)s3)n2)cc1 [Compound 96] | 178 to 179 °C |
| CC(C)[C@@H](NS(=O)(=O)c1ccc(-n2nnc(-c3ccc(F)cc3)n2)cc1)C(=O)O [Compound 106] | 204 to 205 °C |
| CCc1ccc(-c2nnn(-c3ccc(S(=O)(=O)N[C@H](C(=O)O)C(C)C)cc3)n2)cc1 [Compound 112] | 179 to 181 °C |
| CCc1ccc(-c2nnn(-c3ccc(S(=O)(=O)N[C@@H](Cc4ccccc4)C(=O)O)cc3)n2)cc1 [Compound 110] | 188 to 190 °C |
| Cc1ccc(C#Cc2ccc(S(=O)(=O)N[C@H](Cc3ccccc3)C(=O)O)s2)s1 [Compound 87] | 158 to 160 °C |

molecular target: T1, MMP-2 (Homo sapiens, UniProt P08253); experiment: Assay for inhibitory activity against MMP-2; type: biochemical; details: not given
T1 construct: purchased Yagai (Yamagata pref., Japan)
T1 sequence (P08253 110-660): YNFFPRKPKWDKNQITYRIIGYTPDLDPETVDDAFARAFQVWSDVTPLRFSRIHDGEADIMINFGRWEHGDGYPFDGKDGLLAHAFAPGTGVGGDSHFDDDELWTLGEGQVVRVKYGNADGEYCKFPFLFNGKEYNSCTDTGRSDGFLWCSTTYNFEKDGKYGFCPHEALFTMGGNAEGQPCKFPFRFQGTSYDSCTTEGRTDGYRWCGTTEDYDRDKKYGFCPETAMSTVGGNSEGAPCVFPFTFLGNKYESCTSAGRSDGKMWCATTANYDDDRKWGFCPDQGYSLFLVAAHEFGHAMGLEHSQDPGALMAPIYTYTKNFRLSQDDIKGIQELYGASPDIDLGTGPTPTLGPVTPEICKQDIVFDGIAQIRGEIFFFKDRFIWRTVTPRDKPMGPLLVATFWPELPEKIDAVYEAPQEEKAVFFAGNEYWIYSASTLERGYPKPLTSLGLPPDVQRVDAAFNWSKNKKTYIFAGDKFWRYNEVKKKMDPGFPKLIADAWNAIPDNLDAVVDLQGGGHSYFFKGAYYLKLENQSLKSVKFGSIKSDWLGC
Method: (§1) Assay for Inhibitory Activities of MMP-9 and MMP-2
(§2) The enzymatic activity was analyzed on the method described by Knight, C. G., et al. (C. Graham Knight., Frances Willenbrock and Gillian Murphy: A novel coumarin-labelled peptide for sensitive continuous assays of the matrix metalloproteinases. FEBS Lett., 296 (1992) 263-266).
MMP-2 was purchased from Yagai (Yamagata pref., Japan).
(§3) MOCAc-Pro-Leu-Gly-Leu-A2pr(Dnp)-Ala-Arg-NH2 as a substrate was purchased from Petide Institute(Osaka pref., Japan). This substrate was dissolved in DMSO at a concentration of 1 mM.
(§4) Reaction buffer consists of 50 mM Tris-HCl buffer (pH 7.5) containing 10 mM CaCl2, 0.3 M NaCl, 0.005% Brij35 and 0.01% NaN3.
Assay Method of Inhibitory Activity Against MMP-2:
(§5) 1.0 μl of a tested compound in DMSO is added to 48.0 μl of a reaction buffer containing 0.05 μl of an enzyme solution. After standing for 60 minutes at room temperature, the reaction was started by adding 1.0 μl of a substrate solution. After incubation for 60 minutes at room temperature, 100 μl of 3% (v/v) AcOH for reaction stopping and measured a fluorescence with excitation and emission at 320 nm and 405 nm, respectively (Spectrophotofluorometer; Fluoroscan Ascent (Labsystem)).
(§6) The measurement of the inhibitory activities (IC50) was carried out in a following four methods;
(§7) A) Reaction with substrate, enzyme and inhibitor
(§8) B) Reaction with substrate and inhibitor, without enzyme
(§9) C) Reaction with substrate and enzyme, without inhibitor
(§10) D) Reaction with substrate only
(§11) IC50 values were calculated by using a following formula and each fluorescence values of above four methods (A to D).
(§12) % inhibition={1−(A−B)/(C−D)}×100
(§13) IC50 means the concentration required to inhibit 50% of the enzyme activity.

| Structure (SMILES) | pIC50 |
| --- | --- |
| CCOc1ccc(-c2nnn(-c3ccc(S(=O)(=O)N[C@@H](C(=O)O)C(C)C)cc3)n2)cc1 [Compound 118] | 8.67 |
| CCc1ccc(-c2nnn(-c3ccc(S(=O)(=O)N[C@H](Cc4ccccc4)C(=O)O)cc3)n2)cc1 [Compound 108] | 8.00 |
| CC(C)[C@@H](NS(=O)(=O)c1ccc(-n2nnc(-c3ccc(N(C)C)cc3)n2)cc1)C(=O)O [Compound 119] | 8.77 |
| CCc1ccc(-c2nnn(-c3ccc(S(=O)(=O)N[C@H](C)C(=O)O)cc3)n2)cc1 [Compound 117] | 8.58 |
| CC(C)[C@@H](NS(=O)(=O)c1ccc(-n2nnc(-c3ccc(C(F)(F)F)cc3)n2)cc1)C(=O)O [Compound 104] | 8.69 |
| Cc1ccc(-n2nnc(-c3ccc(S(=O)(=O)N[C@@H](C(=O)O)C(C)C)s3)n2)cc1 [Compound 96] | 8.82 |
| CC(C)[C@@H](NS(=O)(=O)c1ccc(-n2nnc(-c3ccc(F)cc3)n2)cc1)C(=O)O [Compound 106] | 7.55 |
| CCc1ccc(-c2nnn(-c3ccc(S(=O)(=O)N[C@H](C(=O)O)C(C)C)cc3)n2)cc1 [Compound 112] | 7.55 |
| CCc1ccc(-c2nnn(-c3ccc(S(=O)(=O)N[C@@H](Cc4ccccc4)C(=O)O)cc3)n2)cc1 [Compound 110] | 7.59 |
| Cc1ccc(C#Cc2ccc(S(=O)(=O)N[C@H](Cc3ccccc3)C(=O)O)s2)s1 [Compound 87] | 8.43 |

molecular target: T2, MMP-9 (Homo sapiens, UniProt P14780); experiment: Assay for inhibitory activity against MMP-9; type: biochemical; details: not given
T2 construct: made in house; host or cells: HT1080 human fibrosarcoma cells; endogenous protein secreted after TPA treatment and purified from conditioned medium
Method: as §1, §2
MMP-9 was purified by using a combination of procedures described in previous reports as follows. Yasunori Okada, Yukio Gonoji, Katsumi Naka, Katsuro Tomita, Isao Nakanishi, Kazushi Iwata and Taro Hayakawa: Matrix metalloproteinase 9 (92-kDa gelatinase/type IV collagenase) from HT1080 human fibrosarcoma cells. Purification and activation of the precursor and enzymic properties. J. Biol. Chem., 267 (1992) 21712-21719. Yasunori Okada, Tatsuhisa Morodomi, Jan J, Enghild, Ko Suzuki, Atsushi Yasui, Isao Nakanishi, Guy Salvesen and Hideaki Nagase: Matrix metalloproteinase 2 from human rheumatoid synovial fibroblasts. Purification and activation of the precursor and enzymic properties. Eur. J. Biochem. 194 (1990) 721-730. Robin V Ward, Rosalind M Hembry, John J Reynolds and Gillian Murphy: The purification of tissue inhibitor of metalloproteinase-2 from its 72 kDa progelatinase complex. Biochem. J. 278 (1991) 179-187.
Briefly, human fibrosarcoma ATCC HT1080 cell line was cultured to confluent in Dulbecco's Modified Medium (DMEM) containing 10% fetal-calf serum at 37° C. for 48 hours. Subsequently, the medium of confluent culture was changed to serum-free DMEM medium. To obtain MMP-9, Phorbol-12-myristate-13-acetate (TPA) must be added to this serum-free DMEM medium at a concentration of 50 ng/ml. The TPA treated medium was centrifuged at 3000 rpm for 15 min and the supernatant was concentrated to 450 ml by a Toyo-Roshi UP-20 apparatus with an ultrafiltration membrane. Then, proMMP-9 in this concentrated solution was purified by using columns of Gelatin-Sepharose and Concanavalin A-Sepharose. The pool containing proMMP-9 was dialyzed, concentrated (Toyo-Roshi UP-20) and applied to columns of Sephacryl S-200 and Green A matrix for the separation from TIMPs. The obtained proMMP-9 fraction was activated by TPCK-Trypsin (final conc. […] reaction mix.) for the assay.
as §3, §4
Assay Method of Inhibitory Activity Against MMP-9:
as §5, with “0.08” for “0.05”
as §6, §7, §8, §9, §10, §11, §12, §13

T2 sequence (P14780 107-707 limits assumed): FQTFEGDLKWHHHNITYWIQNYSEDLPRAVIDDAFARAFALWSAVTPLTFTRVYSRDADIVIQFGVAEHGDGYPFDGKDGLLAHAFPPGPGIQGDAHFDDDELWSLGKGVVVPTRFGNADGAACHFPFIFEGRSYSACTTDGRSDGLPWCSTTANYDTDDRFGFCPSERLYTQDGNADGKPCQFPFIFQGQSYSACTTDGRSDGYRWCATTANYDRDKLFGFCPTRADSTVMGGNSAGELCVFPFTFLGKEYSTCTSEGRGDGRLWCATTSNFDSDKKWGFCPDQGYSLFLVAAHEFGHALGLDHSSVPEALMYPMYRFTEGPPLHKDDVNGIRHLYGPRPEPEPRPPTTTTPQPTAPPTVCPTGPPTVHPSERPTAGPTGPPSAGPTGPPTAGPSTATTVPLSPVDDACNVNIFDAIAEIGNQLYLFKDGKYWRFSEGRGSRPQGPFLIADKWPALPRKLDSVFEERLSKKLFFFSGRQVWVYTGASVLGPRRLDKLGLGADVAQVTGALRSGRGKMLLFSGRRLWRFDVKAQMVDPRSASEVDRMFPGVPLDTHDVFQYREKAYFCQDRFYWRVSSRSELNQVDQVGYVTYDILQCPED

| Structure (SMILES) | pIC50 |
| --- | --- |
| CCOc1ccc(-c2nnn(-c3ccc(S(=O)(=O)N[C@@H](C(=O)O)C(C)C)cc3)n2)cc1 [Compound 118] | 7.21 |
| CCc1ccc(-c2nnn(-c3ccc(S(=O)(=O)N[C@H](Cc4ccccc4)C(=O)O)cc3)n2)cc1 [Compound 108] | 7.51 |
| CC(C)[C@@H](NS(=O)(=O)c1ccc(-n2nnc(-c3ccc(N(C)C)cc3)n2)cc1)C(=O)O [Compound 119] | 7.34 |
| CCc1ccc(-c2nnn(-c3ccc(S(=O)(=O)N[C@H](C)C(=O)O)cc3)n2)cc1 [Compound 117] | 7.51 |
| CC(C)[C@@H](NS(=O)(=O)c1ccc(-n2nnc(-c3ccc(C(F)(F)F)cc3)n2)cc1)C(=O)O [Compound 104] | 7.73 |
| Cc1ccc(-n2nnc(-c3ccc(S(=O)(=O)N[C@@H](C(=O)O)C(C)C)s3)n2)cc1 [Compound 96] | 7.44 |
| CC(C)[C@@H](NS(=O)(=O)c1ccc(-n2nnc(-c3ccc(F)cc3)n2)cc1)C(=O)O [Compound 106] | 6.98 |
| CCc1ccc(-c2nnn(-c3ccc(S(=O)(=O)N[C@H](C(=O)O)C(C)C)cc3)n2)cc1 [Compound 112] | 6.90 |
| CCc1ccc(-c2nnn(-c3ccc(S(=O)(=O)N[C@@H](Cc4ccccc4)C(=O)O)cc3)n2)cc1 [Compound 110] | 7.02 |
| Cc1ccc(C#Cc2ccc(S(=O)(=O)N[C@H](Cc3ccccc3)C(=O)O)s2)s1 [Compound 87] | 8.00 |

tested on: E30 monoclonal antibody-induced glomerulonephritis in Slc-Wistar rats; experiment: Urinary protein excretion in E30 monoclonal antibody-induced glomerulonephritis rats; type: in vivo, rat; details: urinary protein excretion on day 2 after E30 injection, compound-treated vs vehicle-treated group, oral, 100 mg once a day, first dose 2 hours before E30
Method: Five to eight weeks old male Slc-Wistar rats were used in the experiment.
In order to induce glomerulonephritis, E30 of 20 to 500 μg, preferably 50 to 200 μg, is intravenously injected to rats of five to eight weeks old. Test compounds of 0.1 to 500 mg, preferably 1 to 200 mg, are suspended with 3 to 10%, preferably 4 to 6%, gum arabic solution and the like, and are orally given 1 to 5 hours, preferably 1.5 to 3 hours, prior to E30 injection. Constant amount of test compounds are then consecutively given 1 to 3 times a day. Evaluation of test compounds are determined by the amount of urinary protein excretion 2 days after E30 injection when proteinuria reaches to the maximum level.
Determination of the amount of urinary protein excretion is performed by the collection of 24-hour urine samples with stainless metabolic cages followed by the measurement of the concentration of urinary protein. Blood samples obtained at the follow-up period are processed for the determination of blood urea nitrogen and plasma creatinine, which indicate renal function. As a marker of damaged renal tubules, urinary amounts of N-acetyl-D-glycosaminidase excretion is measured. Furthermore, to study the inhibitory effects of compounds on mesangial proliferation following E30 injection, the number of PCNA (proliferating cell nuclear antigen) positive cells per single glomerulus is counted. Morphological changes are observed with light and electron microscopy.
5-week-old male Slc-Wistar rats were reared under the conditions of room temperature of 25° C., 40-60% humidity and 12 hour cycles of light and darkness and fed on solid chow (CA-1, Clea Japan) and tap water ad libitum. After one week's preliminary rearing, each rat was housed in a stainless metabolic cage for acclimation for one week, and was used for experiment at 7 weeks of old (body weight: 150-180 g). E30 monoclonal antibody (J.J.N., vol. 36, p106, 1994) was diluted with saline at 100 μg/0.4 ml and was administered from tail vein at the volume of 0.4 ml/body. Compound (2) was suspended with 5% gum arabic solution and was given at the dose of 100 mg 2 hours before E30 injection. Subsequently, compound (2) of 100 mg was orally administered once a day from the next day. The rats were housed in stainless metabolic cages just after the administration of test compound, and then 24-hour urine samples were collected. After measuring the volume, the urine was centrifuged at 3000 rpm for 10 min at room temperature. […] Urinary protein was determined by pyrogallole red method (Micro TP-test Wako, Wako Zyunyaku). The amount of urinary protein excretion on day 2 in compound-treated group was compared with that in vehicle-treated one, and inhibitory ratio of urinary protein excretion was calculated. […]

| Structure (SMILES) | Inhibitory rate (%) of urinary protein excretion |
| --- | --- |
| CCc1ccc(-c2nnn(-c3ccc(S(=O)(=O)N[C@H](Cc4ccccc4)C(=O)O)cc3)n2)cc1 [Compound 108] | 35% |
| CC(C)[C@@H](NS(=O)(=O)c1ccc(-n2nnc(-c3ccc(C(F)(F)F)cc3)n2)cc1)C(=O)O [Compound 104] | 27% |
